Measurements from patent US7728012B2, “Carboxamide compounds and their use as calpain inhibitors” (Abbott GmbH & Co. KG, priority 2006, dated 2010).
Where a name gives a salt, the structure may show the parent alone.

How the values were obtained:
[1] = biological target: T1, calpain-I isolated from human erythrocytes (Homo sapiens, UniProt P07384); experiment: Calpain I kinetic fluorescence enzyme inhibition assay; assay type: biochemical; conditions: apparent Ki from IC50 by Cheng-Prussoff; average of 2 to 4 dose-effect plots
T1 construct: calpain-I—isolated from human erythrocytes; purchased Calbiochem 208713; host or cells: human erythrocytes (tissue isolate)
T1 sequence (P07384 1-714): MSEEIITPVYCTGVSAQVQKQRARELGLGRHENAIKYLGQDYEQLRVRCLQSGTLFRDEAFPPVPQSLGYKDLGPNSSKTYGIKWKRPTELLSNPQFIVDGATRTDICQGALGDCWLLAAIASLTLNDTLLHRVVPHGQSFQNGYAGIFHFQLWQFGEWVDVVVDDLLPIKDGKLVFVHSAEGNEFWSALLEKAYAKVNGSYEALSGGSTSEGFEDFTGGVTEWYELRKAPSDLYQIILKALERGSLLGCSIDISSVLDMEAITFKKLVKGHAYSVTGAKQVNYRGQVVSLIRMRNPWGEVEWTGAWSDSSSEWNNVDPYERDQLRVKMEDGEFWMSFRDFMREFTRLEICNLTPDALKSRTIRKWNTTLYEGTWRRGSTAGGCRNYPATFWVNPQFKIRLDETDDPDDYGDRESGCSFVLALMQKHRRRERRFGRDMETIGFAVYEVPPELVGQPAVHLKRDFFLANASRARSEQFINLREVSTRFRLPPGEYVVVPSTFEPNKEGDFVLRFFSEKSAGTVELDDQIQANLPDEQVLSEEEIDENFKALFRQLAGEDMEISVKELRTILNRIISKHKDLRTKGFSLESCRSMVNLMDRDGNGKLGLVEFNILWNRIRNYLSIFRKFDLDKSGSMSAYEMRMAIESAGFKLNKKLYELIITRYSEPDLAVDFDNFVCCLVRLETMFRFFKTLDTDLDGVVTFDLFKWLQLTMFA
T1 sequence (P04632 1-268 partner): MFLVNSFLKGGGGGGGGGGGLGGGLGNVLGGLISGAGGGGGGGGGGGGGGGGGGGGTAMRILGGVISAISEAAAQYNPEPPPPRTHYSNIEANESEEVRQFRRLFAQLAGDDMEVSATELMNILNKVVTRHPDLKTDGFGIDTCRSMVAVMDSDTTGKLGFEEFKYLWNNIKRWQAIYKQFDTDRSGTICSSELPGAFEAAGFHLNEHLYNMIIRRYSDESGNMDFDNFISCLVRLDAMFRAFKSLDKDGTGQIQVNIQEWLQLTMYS
Experimental: (§1) The following solutions and buffers were employed: • HBS (for 40 ml): 800 μl M HEPES; 2.16 ml 100 mM KCl; 4.8 ml 1M NaCl; 3.59 ml 5% glucose; 60 μl μM MgSO4; 400 μl 100 mM Na pyruvate, 28.19 ml water; pH 7.2-7.5. • lysis buffer (for 20 ml): 400 μl M Tris pH 8.2; 2.74 ml 1M NaCl; 520 μl 0.5M EDTA; 2 ml 10% triton X-100; 0.8 ml (=1:25) CompletePlus (1 tablet/2 ml H2O); 200 μl 100 mM Pefabloc; 13.34 ml water, pH 8.2. • TBST (10×) (for 1 l): 100 mM Tris (12.1 g); 1.5M NaCl (87 g); 1% Tween 20 (10 g), adjusted to pH 8. I Enzyme Inhibition In Vitro: • Testing for blockade of the corresponding enzymic activities was carried out by means of kinetic fluorescence assays (excitation 390 nm, emission 460 nm). • Apparent Ki values were calculated from the experimentally determined IC50 values by the Cheng-Prussoff relation assuming a reversible competitive enzyme inhibition. The Km values of the substrates used under the assay conditions indicated above were: 90 μM (Z-Phe-Arg-AMC, cathepsin B), 10 μM (Z-Gly-Pro-Arg-AMC, cathepsin K), 2 μM (Z-Phe-Arg-AMC, cathepsin L), and 30 μM (Z-Val-Val-Arg-AMC, cathepsin S). • The indicated Ki values are averages of the inhibition constants calculated on the basis of 2 to 4 independent dose-effect plots.
(§2) The following assays were used: • 1. Calpain I: • 20 nM calpain-I—isolated from human erythrocytes (Calbiochem #208713), 100 μM Suc-Leu-Tyr-AMC (Bachem #1-1355) as substrate in buffer with 62 mM imidazole, 0.3 mM CaCl2, 0.10% CHAPS, 0.05% BSA, 1 mM DTT at pH 7.3 and room temperature. • 2. Cathepsin B: • 0.25 nM cathepsin B—isolated from human liver (Calbiochem #219362), 100 μM Z-Phe-Arg-AMC (Bachem #I-1160) as substrate 50 mM MES, 2 mM EDTA, 0.05% Brij 35, 2.5 mM L-cysteine, pH 6.0, room temperature. • 3. Cathepsin K: • 3 nM cathepsin K—activated from recombinant human procathepsin K from E. coli (Calbiochem #342001), 10 μM Z-Gly-Pro-Arg-AMC (Biomol #P-142) as substrate in 50 mM MES, 2 mM EDTA, 0.05% Brij 35, 2.5 mM L-cysteine, pH 6.0, room temperature. • 4. Cathepsin L: • 1 nM cathepsin L—isolated from human liver (Calbiochem #219402), 2 μM Z-Phe-Arg-AMC (Bachem #1-1160) as substrate in 50 mM MES, 2 mM EDTA, 0.05% Brij 35, 2.5 mM L-cysteine, pH 6.0, room temperature. • 5. Cathepsin S: • 0.5 nM recombinant human cathepsin S from E. coli (Calbiochem #219343), 20 μM Z-Val-Val-Arg-AMC (Bachem #1-1540) as substrate in 50 mM MES, 2 mM EDTA, 0.05% Brij 35, 2.5 mM L-cysteine, pH 6.0, room temperature. • The results of the in vitro determination are indicated in Table 1. The following abbreviations are used in Table 1: • The “Calpain activity” column, ++ stands for a calpain Ki (Ki(calpain)) of ≦40 nM and + means: 40 nM<Ki(Calpain)≦100 nM. • The “Sel. cat. B” column indicates the Ki(cathepsin B)/Ki(calpain) ratio. In this connection, ++ means a Ki(cathepsin B)/Ki(calpain) ratio of ≧30 and + means 10≦Ki(cathepsin B)/Ki(calpain)<30. • The “Sel. cat. K” column indicates the Ki(cathepsin K)/Ki(calpain) ratio. In this connection, ++ means a Ki(cathepsin K)/Ki(calpain) ratio of ≧30 and + means 10≦Ki(cathepsin K)/Ki(calpain)<30. • The “Sel. cat. L” column indicates the Ki(cathepsin L)/Ki(calpain) ratio. In this connection, ++ means a Ki(cathepsin L)/Ki(calpain) ratio of ≧50 and + means 30≦Ki(cathepsin L)/Ki(calpain)<50. • The “Sel. cat. S” column indicates the Ki(cathepsin S)/Ki(calpain) ratio. In this connection, ++ means a Ki(cathepsin S)/Ki(calpain) ratio of ≧100 and + means 50≦Ki(cathepsin S)/Ki(calpain)<100.

[2] = biological target: T2, recombinant human cathepsin S (Homo sapiens, UniProt P25774); experiment: Cathepsin S kinetic fluorescence enzyme inhibition assay; assay type: biochemical; conditions: selectivity ratio versus calpain I
T2 construct: purchased Calbiochem 219343; host or cells: E. coli
T2 sequence (P25774 115-331): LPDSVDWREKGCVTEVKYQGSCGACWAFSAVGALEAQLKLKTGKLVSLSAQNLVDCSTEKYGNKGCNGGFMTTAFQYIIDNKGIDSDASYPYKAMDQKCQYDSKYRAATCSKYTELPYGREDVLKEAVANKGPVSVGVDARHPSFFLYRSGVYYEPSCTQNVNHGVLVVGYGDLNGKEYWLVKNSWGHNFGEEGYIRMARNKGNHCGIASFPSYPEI
Experimental: as §1, §2

Structure (SMILES)	Ki [1] [nM]	Sel cat. S (Ki(cathepsin S)/Ki(calpain) ratio) [2]
NC(=O)C(=O)C(Cc1ccccc1)NC(=O)c1cccnc1-n1cc(-c2ccccc2)cn1 (centres unmarked) [Example 4, N-(3-Amino-1-benzyl-2,3-dioxopropyl)-2-(4-phenyl-1H-pyrazol-1-yl)nicotinamide]	≤ 40	–
CCCCC(NC(=O)c1cccnc1-n1ccc(-c2ccccc2)n1)C(=O)C(N)=O (centres unmarked) [Example 6, N-{1-[Amino(oxo)acetyl]pentyl}-2-(3-phenyl-1H-pyrazol-1-yl)nicotinamide]	≤ 40	+ (50≦Ki(cathepsin S)/Ki(calpain)<100)
CCCCC(NC(=O)c1cccnc1-n1cnc(-c2ccc(Cl)cc2)c1)C(=O)C(N)=O (centres unmarked) [Example 10, N-{1-[Amino(oxo)acetyl]pentyl}-2-[4-(4-chlorophenyl)-1H-imidazol-1-yl]nicotinamide]	≤ 40	–
CCCCC(NC(=O)c1cccnc1-n1cnc(-c2ccc(OC)cc2)c1)C(=O)C(N)=O (centres unmarked) [Example 12, N-{1-[Amino(oxo)acetyl]pentyl}-2-[4-(4-methoxyphenyl)-1H-imidazol-1-yl]nicotinamide]	≤ 40	–
NC(=O)C(=O)C(Cc1ccccc1)NC(=O)c1cccnc1-n1cnc(-c2ccc(N3CCOCC3)cc2)c1 (centres unmarked) [Example 14, N-(3-Amino-1-benzyl-2,3-dioxopropyl)-2-[4-(4-morpholin-4-ylphenyl)-1H-imidazol-1-yl]nicotinamide]	40 to 100	++ (Ki(cathepsin S)/Ki(calpain) ratio of ≧100)
CCN(CC)c1ccc(-c2cn(-c3ncccc3C(=O)NC(Cc3ccccc3)C(=O)C(N)=O)cn2)cc1 (centres unmarked) [Example 16, N-(3-Amino-1-benzyl-2,3-dioxopropyl)-2-{4-[4-(diethylamino)phenyl]-1H-imidazol-1-yl}nicotinamide hydrochloride]	40 to 100	–
NC(=O)C(=O)C(Cc1ccccc1)NC(=O)c1cccnc1-n1cnc(-c2ccccc2Cl)c1 (centres unmarked) [Example 19, N-(3-Amino-1-benzyl-2,3-dioxopropyl)-2-[4-(2-chlorophenyl)-1H-imidazol-1-yl]nicotinamide hydrochloride]	≤ 40	–
CCCCC(NC(=O)c1cccnc1-n1cnc(-c2ccccc2Cl)c1)C(=O)C(N)=O (centres unmarked) [Example 20, N-{1-[Amino(oxo)acetyl]pentyl}-2-[4-(2-chlorophenyl)-1H-imidazol-1-yl]nicotinamide hydrochloride]	≤ 40	–
CCCCC(NC(=O)c1cccnc1-n1cnc(-c2cccc(Cl)c2)c1)C(=O)C(N)=O (centres unmarked) [Example 21, N-{1-[Amino(oxo)acetyl]pentyl}-2-[4-(3-chlorophenyl)-1H-imidazol-1-yl]nicotinamide]	≤ 40	–
NC(=O)C(=O)C(Cc1ccccc1)NC(=O)c1cccnc1-n1cnc(-c2cccc(Cl)c2)c1 (centres unmarked) [Example 22, N-(3-Amino-1-benzyl-2,3-dioxopropyl)-2-[4-(3-chlorophenyl)-1H-imidazol-1-yl]nicotinamide]	≤ 40	–
NC(=O)C(=O)C(Cc1ccccc1)NC(=O)c1cc(Cl)cnc1-n1cnc(-c2ccccc2)c1 (centres unmarked) [Example 23, N-(3-Amino-1-benzyl-2,3-dioxopropyl)-5-chloro-2-(4-phenyl-1H-imidazol-1-yl)nicotinamide hydrochloride]	≤ 40	–
CC(C)CC(NC(=O)c1cc(Cl)cnc1-n1cnc(-c2ccccc2)c1)C(=O)C(N)=O (centres unmarked) [Example 25, N-{1-[Amino(oxo)acetyl]-3-methylbutyl}-5-chloro-2-(4-phenyl-1H-imidazol-1-yl)nicotinamide]	≤ 40	–
NC(=O)C(=O)C(Cc1ccccc1)NC(=O)c1cccnc1-n1ccc(-c2ccncc2)n1 (centres unmarked) [Example 65, N-(3-Amino-1-benzyl-2,3-dioxopropyl)-2-(3-pyridin-4-yl-1H-pyrazol-1-yl)nicotinamide]	–	++ (Ki(cathepsin S)/Ki(calpain) ratio of ≧100)
NC(=O)C(=O)C(Cc1ccccc1)NC(=O)c1cccnc1-n1ncc2ccccc21 (centres unmarked) [Example 77, N-(3-Amino-1-benzyl-2,3-dioxopropyl)-2-(1H-indazol-1-yl)nicotinamide]	≤ 40	–
O=C[C@H](Cc1ccccc1)NC(=O)c1cccnc1-n1ccc(-c2ccccc2)n1 [Example 105, N-[(1S)-1-Formyl-2-phenylethyl]-2-(3-phenyl-1H-pyrazol-1-yl)pyridine-3-carboxamide]	≤ 40	–
COc1ccc(CC(NC(=O)c2cccnc2-n2ccc(-c3cccc(C(F)(F)F)c3)n2)C(=O)C(N)=O)cc1 (centres unmarked) [Example 126, N-(3-Amino-1-{[4-(methyloxy)phenyl]methyl}-2,3-dioxopropyl)-2-{3-[3-(trifluoromethyl)phenyl]-1H-pyrazol-1-yl}pyridine-3-carboxamide]	≤ 40	–
NC(=O)C(=O)C(Cc1ccccc1)NC(=O)c1cccnc1-n1ccc(-c2ccc3ocnc3c2)n1 (centres unmarked) [Example 129, N-[3-Amino-2,3-dioxo-1-(phenylmethyl)propyl]-2-[3-(1,3-benzoxazol-5-yl)-1H-pyrazol-1-yl]pyridine-3-carboxamide]	40 to 100	–
CN(C)Cc1cn(-c2ncccc2C(=O)NC(Cc2ccccc2)C(=O)C(N)=O)nc1-c1cccc(C(F)(F)F)c1 (centres unmarked) [Example 176, N-[3-Amino-2,3-dioxo-1-(phenylmethyl)propyl]-2-{4-[(dimethylamino)methyl]-3-[3-(trifluoromethyl)phenyl]-1H-pyrazol-1-yl}pyridine-3-carboxamide]	–	++ (Ki(cathepsin S)/Ki(calpain) ratio of ≧100)
